Assay results as given in EP1202975B1, “SUBSTITUTED POLYCYCLIC ARYL AND HETEROARYL PYRAZINONES USEFUL FOR SELECTIVE INHIBITION OF THE COAGULATION CASCADE” (Pharmacia Corporation, priority 1999, dated 2000).
Read-outs that look alike come from different tables or passages of the source.

Columns and labels:
TF-VIIa = target: T1, TF-VIIa (Homo sapiens, UniProt P08709); assay: TF-VIIa Assay; assay type: biochemical
T1 construct: 2nM recombinant human factor VIIa; purchased American Diagnostica, Greenwich CT; host or cells: soluble TF made in house in E. coli

Human factor Xa = Human factor Xa (Homo sapiens, UniProt P00742)
[1] = read-out: IC50 or % Inhibition TF-VIIa (30 µM); cells given as a plain number (IC50)
[2] = read-out: IC50 or % Inhibition TF-VIIa (30 µM); cells without % sign: IC50
[3] = cells given as a plain number (IC50); read-out: IC50 or % Inhibition TF-VIIa (30 µM)

T1 sequence (P08709 213-466 limits assumed): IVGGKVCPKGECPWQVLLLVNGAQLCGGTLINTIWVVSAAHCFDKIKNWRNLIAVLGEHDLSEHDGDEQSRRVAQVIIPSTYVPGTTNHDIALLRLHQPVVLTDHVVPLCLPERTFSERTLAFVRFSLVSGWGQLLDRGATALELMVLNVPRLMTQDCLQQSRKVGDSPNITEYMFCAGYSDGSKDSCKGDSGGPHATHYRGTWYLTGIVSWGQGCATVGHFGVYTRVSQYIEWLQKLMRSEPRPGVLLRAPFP
T1 sequence (P08709 61-212 limits assumed): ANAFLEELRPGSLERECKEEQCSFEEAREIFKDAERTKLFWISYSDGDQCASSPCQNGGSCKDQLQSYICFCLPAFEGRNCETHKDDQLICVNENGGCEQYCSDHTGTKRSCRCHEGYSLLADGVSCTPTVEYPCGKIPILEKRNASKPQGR
T1 sequence (P13726 33-251 partner limits assumed): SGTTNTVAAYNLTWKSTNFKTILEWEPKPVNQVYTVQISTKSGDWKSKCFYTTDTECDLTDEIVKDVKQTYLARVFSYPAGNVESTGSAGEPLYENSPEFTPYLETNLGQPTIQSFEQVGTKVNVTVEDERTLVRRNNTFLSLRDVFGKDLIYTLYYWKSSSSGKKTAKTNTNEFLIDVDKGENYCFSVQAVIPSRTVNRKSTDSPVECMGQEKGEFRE
Human factor Xa, sequence (P00742 235-488 limits assumed): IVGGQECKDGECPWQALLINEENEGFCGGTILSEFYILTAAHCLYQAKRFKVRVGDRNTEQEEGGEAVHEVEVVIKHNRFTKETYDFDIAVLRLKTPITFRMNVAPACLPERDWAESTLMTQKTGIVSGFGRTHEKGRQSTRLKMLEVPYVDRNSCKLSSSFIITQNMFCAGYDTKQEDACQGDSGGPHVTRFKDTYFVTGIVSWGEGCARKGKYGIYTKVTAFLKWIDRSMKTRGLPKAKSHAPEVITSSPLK
Human factor Xa, sequence (P00742 41-179 limits assumed): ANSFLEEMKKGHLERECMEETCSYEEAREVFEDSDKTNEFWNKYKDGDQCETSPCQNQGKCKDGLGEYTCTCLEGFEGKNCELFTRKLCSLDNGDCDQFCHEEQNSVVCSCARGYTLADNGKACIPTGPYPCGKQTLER

Row | SMILES | % Inhibition TF-VIIa (100 µM) (TF-VIIa; 100 µM) [%] | other results
1 | Cc1cccc(Cl)c1CNc1nc(Cl)c(-c2ccccc2)n(CC(=O)NCc2ccc(C(=N)N)cc2)c1=O [1512-31] | – | IC50 or % Inhibition TF-VIIa (30 µM) (TF-VIIa): 43%; IC50 or % Inhibition Factor Xa (30 µM) (Human factor Xa): 14%
2 | N=C(N)c1ccc(CNC(=O)Cn2c(-c3ccc(Cl)cc3)c(Cl)nc(NCc3ccccc3)c2=O)cc1 [1471-17] | – | IC50 (TF-VIIa; [1]): 11 µM
3 | O=C(Cn1c(-c2cccc(Cl)c2)c(Cl)nc(NCCc2ccc(Cl)cc2)c1=O)NCCc1ccncc1 [Example E-0082] | 4 | –
4 | COc1ccc(-c2c(Cl)nc(NCCc3ccc(Cl)cc3)c(=O)n2CC(=O)NCCc2cccnc2)cc1 [Example E-0107] | – | % Inhibition TF-VIIa (100 µM) (TF-VIIa): 4%; % Inhibition Factor Xa (100 µM) (Human factor Xa): 6%
5 | O=C(Cn1c(Cc2ccccc2)c(Cl)nc(NCc2ccncc2)c1=O)NCCc1ccncc1 [Example E-0064] | – | % Inhibition TF-VIIa (100 µM) (TF-VIIa): 0%; % Inhibition Factor Xa (100 µM) (Human factor Xa): 0%
6 | N=C(N)c1ccc(CNC(=O)Cn2c(-c3ccccc3)c(Cl)nc(NCc3ccncc3)c2=O)cc1 [1471-11] | – | IC50 (TF-VIIa; [1]): 1.69 µM; IC50 or % Inhibition Factor Xa (30 µM) (Human factor Xa): 9%
7 | N=C(N)c1ccc(CNC(=O)Cn2c(-c3ccccc3)c(Cl)nc(NCCc3cccnc3)c2=O)cc1 [1471-16] | – | IC50 (TF-VIIa; [1]): 0.82 µM; IC50 or % Inhibition Factor Xa (30 µM) (Human factor Xa): 23%
8 | Cc1c(Cl)nc(NCc2ccncc2)c(=O)n1CC(=O)NCCc1ccncc1 [Example E-0008] | – | % Inhibition TF-VIIa (100 µM) (TF-VIIa): 0%; % Inhibition Factor Xa (100 µM) (Human factor Xa): 0%
9 | N=C(N)c1ccc(CNC(=O)Cn2c(-c3cccc(N)c3)c(Cl)nc(NCCN3CCCCC3)c2=O)cc1 [1543-15] | – | IC50 (TF-VIIa; [2]): 0.95 µM; IC50 or % Inhibition Factor Xa (30 µM) (Human factor Xa): 41%
10 | N=C(N)c1ccc(CNC(=O)Cn2c(-c3ccccc3)c(Cl)nc(NCCCN3CCCC3=O)c2=O)cc1 [1507-19] | – | IC50 (TF-VIIa; [1]): 12.9 µM; IC50 or % Inhibition Factor Xa (30 µM) (Human factor Xa): 4%
11 | N=C(N)c1ccc(CNC(=O)Cn2c(-c3ccccc3O)c(Cl)nc(NC3CCC3)c2=O)cc1 [Example 66] | – | IC50 (TF-VIIa; [3]): 0.34 µM; IC50 or % Inhibition Factor Xa (30 µM) (Human factor Xa): 0%
12 | COc1ccc(-c2c(Cl)nc(NCCc3cccnc3)c(=O)n2CC(=O)NCCc2ccncc2)cc1 [Example E-0037] | – | % Inhibition TF-VIIa (100 µM) (TF-VIIa): 0%; % Inhibition Factor Xa (100 µM) (Human factor Xa): 0%
13 | N=C(N)c1ccc(CNC(=O)Cn2c(-c3ccccc3)c(Cl)nc(NC(c3ccccc3)c3ccccc3)c2=O)cc1 [1507-35] | – | IC50 (TF-VIIa; [1]): 19.9 µM; IC50 or % Inhibition Factor Xa (30 µM) (Human factor Xa): 28%
14 | CC(C)Nc1nc(Cl)c(-c2cccc(N)c2)n(CC(=O)NCCc2ccc(C(=N)N)cc2)c1=O [Example 62] | – | IC50 (TF-VIIa; [1]): 5.6 µM; IC50 or % Inhibition Factor Xa (30 µM) (Human factor Xa): 10%
15 | COc1ccc(-c2c(Cl)nc(NCCc3cccc(Cl)c3)c(=O)n2CC(=O)NCCc2ccncc2)cc1 [Example E-0035] | 4 | –
16 | COc1ccc(-c2c(Cl)nc(NCCc3ccc(Cl)cc3)c(=O)n2CC(=O)NCCc2ccncc2)cc1 [Example E-0036] | 0 | –
17 | N=C(N)c1ccc(CNC(=O)Cn2c(-c3ccc(Cl)cc3)c(Cl)nc(NCCc3cccnc3)c2=O)cc1 [1471-24] | – | IC50 (TF-VIIa; [1]): 10 µM
18 | O=C(Cn1c(-c2ccc(Cl)cc2)c(Cl)nc(NCc2ccncc2)c1=O)NCCc1ccncc1 [Example E-0032] | 0 | –
19 | N=C(N)c1ccc(CNC(=O)Cn2c(-c3ccc(Cl)cc3)c(Cl)nc(NCCc3ccncc3)c2=O)cc1 [1471-21] | – | IC50 (TF-VIIa; [1]): 8.18 µM
20 | O=C(Cn1c(-c2cccc(Cl)c2)c(Cl)nc(NCCc2cccc(Cl)c2)c1=O)NCCc1ccncc1 [Example E-0079] | 0 | –
21 | O=C(Cn1c(-c2ccc(Cl)cc2)c(Cl)nc(NCCc2cccnc2)c1=O)NCCc1ccncc1 [Example E-0029] | 0 | –

Row | SMILES | % Inhibition TF-VIIa (100 µM) (TF-VIIa; 100 µM) [%] | other results
22 | O=C(Cn1c(-c2cccc(Cl)c2)c(Cl)nc(NCCc2ccc(Cl)cc2)c1=O)NCCc1cccnc1 [Example E-0095] | 2 | –
23 | O=C(Cn1c(-c2cccc(Cl)c2)c(Cl)nc(NCCc2ccc(Cl)cc2)c1=O)NCCc1ccncc1 [Example E-0094] | 2 | –
24 | O=C(Cn1c(-c2ccc(Cl)cc2)c(Cl)nc(NCCc2cccnc2)c1=O)NCCc1ccncc1 [Example E-0021] | 0 | –
25 | O=C(Cn1c(-c2ccc(Cl)cc2)c(Cl)nc(NCc2ccncc2)c1=O)NCCc1ccncc1 [Example E-0024] | 0 | –
26 | COc1ccc(-c2c(Cl)nc(NCCc3ccc(Cl)cc3)c(=O)n2CC(=O)NCCc2ccncc2)cc1 [Example E-0106] | 5 | –
27 | O=C(Cn1c(-c2cccc(Cl)c2)c(Cl)nc(NCCc2cccc(Cl)c2)c1=O)NCCc1cccnc1 [Example E-0080] | 1 | –
28 | NCc1ccc(CNC(=O)Cn2c(-c3cccc(N)c3)c(Cl)nc(NC3CCC3)c2=O)cc1 [Example 28] | – | IC50 (TF-VIIa; [3]): 3 µM
29 | O=C(Cn1c(-c2ccc(-c3ccccc3)cc2)c(Cl)nc(NCCc2cccc(Cl)c2)c1=O)NCCc1cccnc1 [Example E-0116] | – | % Inhibition Factor Xa (100 µM) (Human factor Xa): 4%
30 | N=C(N)c1ccc(CNC(=O)Cn2c(-c3cccc(N)c3)c(Cl)nc(NCCN3CCCC3)c2=O)c(F)c1 [1543-37] | – | IC50 (TF-VIIa; [2]): 1.23 µM
31 | O=C(Cn1c(-c2ccc(Cl)cc2)c(Cl)nc(NCCc2cccc(Cl)c2)c1=O)NCCc1ccncc1 [Example E-0019] | 0 | –
32 | COc1ccc(-c2c(Cl)nc(NCCc3cccc(Cl)c3)c(=O)n2CC(=O)NCCc2ccncc2)cc1 [Example E-0103] | 2 | –
33 | O=C(Cn1c(-c2cccc(Cl)c2)c(Cl)nc(NCCc2cccc(Cl)c2)c1=O)NCCc1cccnc1 [Example E-0092] | 1 | –
34 | O=C(Cn1c(-c2ccc(Cl)cc2)c(Cl)nc(NCCc2ccncc2)c1=O)NCCc1ccncc1 [Example E-0030] | 0 | –
35 | Nc1cccc(-c2c(Cl)nc(NC3CCC3)c(=O)n2CC(=O)NCc2ccc(C3=NCCN3)cc2)c1 [Example 27] | – | IC50 (TF-VIIa; [3]): 12.5 µM
36 | N=C(N)c1ccc(CNC(=O)Cn2c(-c3ccccc3)c(Cl)nc(NCCc3cccc(Cl)c3)c2=O)cc1 [1471-14] | – | IC50 (TF-VIIa; [3]): 0.18 µM
37 | O=C(Cn1c(-c2ccc(Cl)cc2)c(Cl)nc(NCCc2ccncc2)c1=O)NCCc1ccncc1 [Example E-0022] | 0 | –
38 | O=C(Cn1c(-c2ccc(Cl)cc2)c(Cl)nc(NCCc2ccc(Cl)cc2)c1=O)NCCc1ccncc1 [Example E-0028] | 0 | –
39 | O=C(Cn1c(-c2cccc(Cl)c2)c(Cl)nc(NCCc2cccc(Cl)c2)c1=O)NCCc1ccncc1 [Example E-0091] | 1 | –
40 | O=C(Cn1c(-c2cccc(Cl)c2)c(Cl)nc(NCCc2ccc(Cl)cc2)c1=O)NCCc1cccnc1 [Example E-0083] | 2 | –
41 | O=C(Cn1c(-c2ccc(Cl)cc2)c(Cl)nc(NCCN2CCOCC2)c1=O)NCCc1ccncc1 [Example E-0023] | 0 | –
42 | O=C(Cn1c(-c2ccc(-c3ccccc3)cc2)c(Cl)nc(NCCc2ccc(Cl)cc2)c1=O)NCCc1cccnc1 [Example E-0119] | – | % Inhibition Factor Xa (100 µM) (Human factor Xa): 5%

More lines, main results first:

Row | % Inhibition TF-VIIa (100 µM) (TF-VIIa; 100 µM) [%] | SMILES | other results
43 | 0 | O=C(Cn1c(-c2cccc(Cl)c2)c(Cl)nc(NCc2ccccc2)c1=O)NCCc1cccnc1 [Example E-0074] | –
44 | 0 | COc1ccc(-c2c(Cl)nc(NCCc3ccccc3)c(=O)n2CC(=O)NCCc2ccncc2)cc1 [Example E-0034] | –
45 | 0 | O=C(Cn1c(-c2cccc(Cl)c2)c(Cl)nc(NCCc2ccccc2)c1=O)NCCc1ccncc1 [Example E-0088] | –
46 | 1 | O=C(Cn1c(-c2ccc(Cl)cc2)c(Cl)nc(NCCc2ccccc2)c1=O)NCCc1ccncc1 [Example E-0018] | –
47 | 0 | O=C(Cn1c(-c2cccc(Cl)c2)c(Cl)nc(NCCc2ccccc2)c1=O)NCCc1ccncc1 [Example E-0076] | –
48 | 3 | O=C(Cn1c(-c2cccc(Cl)c2)c(Cl)nc(NCCc2ccccc2)c1=O)NCCc1cccnc1 [Example E-0089] | –
49 | 2 | O=C(Cn1c(-c2ccc(-c3ccccc3)cc2)c(Cl)nc(NCc2ccccc2)c1=O)NCCc1ccncc1 [Example E-0109] | –
50 | 11 | O=C(Cn1c(-c2ccc(-c3ccccc3)cc2)c(Cl)nc(NCCc2ccccc2)c1=O)NCCc1ccncc1 [Example E-0112] | –
51 | 0 | O=C(Cn1c(-c2ccc(-c3ccccc3)cc2)c(Cl)nc(NCCc2ccc(Cl)cc2)c1=O)NCCc1ccncc1 [Example E-0052] | –
52 | 0 | O=C(Cn1c(-c2ccc(Cl)cc2)c(Cl)nc(NCc2ccccc2)c1=O)NCCc1ccncc1 [Example E-0017] | –
53 | 0 | O=C(Cn1c(-c2ccc(-c3ccccc3)cc2)c(Cl)nc(NCCc2ccccc2)c1=O)NCCc1ccncc1 [Example E-0050] | –
54 | 2 | O=C(Cn1c(-c2ccc(-c3ccccc3)cc2)c(Cl)nc(NCc2ccccc2)c1=O)NCCc1ccncc1 [Example E-0049] | –
55 | 0 | O=C(Cn1c(-c2cccc(Cl)c2)c(Cl)nc(NCc2ccccc2)c1=O)NCCc1cccnc1 [Example E-0086] | –
56 | 0 | O=C(Cn1c(-c2ccc(Cl)cc2)c(Cl)nc(NCc2ccccc2)c1=O)NCCc1ccncc1 [Example E-0025] | –
57 | 12 | O=C(Cn1c(-c2ccc(-c3ccccc3)cc2)c(Cl)nc(NCCc2ccc(Cl)cc2)c1=O)NCCc1ccncc1 [Example E-0118] | –
58 | 0 | O=C(Cn1c(-c2cccc(Cl)c2)c(Cl)nc(NCc2ccccc2)c1=O)NCCc1ccncc1 [Example E-0085] | –
59 | 0 | O=C(Cn1c(-c2cccc(Cl)c2)c(Cl)nc(NCCc2ccccc2)c1=O)NCCc1cccnc1 [Example E-0077] | –
60 | 0 | O=C(Cn1c(-c2ccc(Cl)cc2)c(Cl)nc(NCCc2ccc(Cl)cc2)c1=O)NCCc1ccncc1 [Example E-0020] | –
61 | 0 | O=C(Cn1c(-c2ccc(Cl)cc2)c(Cl)nc(NCCc2ccccc2)c1=O)NCCc1ccncc1 [Example E-0026] | –
62 | 0 | O=C(Cn1c(-c2cccc(Cl)c2)c(Cl)nc(NCc2ccccc2)c1=O)NCCc1ccncc1 [Example E-0073] | –
